Columns and labels:
Test in all cases: biochemical
Parameters in all cases: species or system HEK293/K-562/placenta mixed human extract; Kinobeads chemoproteomic competition binding, quantified by TMT LC-MS/MS, dose response up to 20 uM
CSNK1A1 = CSNK1A1 (Homo sapiens, UniProt P48729)
EPHB3 = EPHB3 (Homo sapiens, UniProt P54753)
MAP4K2 = MAP4K2 (Homo sapiens, UniProt Q12851)
STK16 = STK16 (Homo sapiens, UniProt O75716)
CDC42BPG = CDC42BPG (Homo sapiens, UniProt Q6DT37)
RIPK4 = RIPK4 (Homo sapiens, UniProt P57078)
EPHB1 = EPHB1 (Homo sapiens, UniProt P54762)
EPHB1, sequence (P54762 whole entry): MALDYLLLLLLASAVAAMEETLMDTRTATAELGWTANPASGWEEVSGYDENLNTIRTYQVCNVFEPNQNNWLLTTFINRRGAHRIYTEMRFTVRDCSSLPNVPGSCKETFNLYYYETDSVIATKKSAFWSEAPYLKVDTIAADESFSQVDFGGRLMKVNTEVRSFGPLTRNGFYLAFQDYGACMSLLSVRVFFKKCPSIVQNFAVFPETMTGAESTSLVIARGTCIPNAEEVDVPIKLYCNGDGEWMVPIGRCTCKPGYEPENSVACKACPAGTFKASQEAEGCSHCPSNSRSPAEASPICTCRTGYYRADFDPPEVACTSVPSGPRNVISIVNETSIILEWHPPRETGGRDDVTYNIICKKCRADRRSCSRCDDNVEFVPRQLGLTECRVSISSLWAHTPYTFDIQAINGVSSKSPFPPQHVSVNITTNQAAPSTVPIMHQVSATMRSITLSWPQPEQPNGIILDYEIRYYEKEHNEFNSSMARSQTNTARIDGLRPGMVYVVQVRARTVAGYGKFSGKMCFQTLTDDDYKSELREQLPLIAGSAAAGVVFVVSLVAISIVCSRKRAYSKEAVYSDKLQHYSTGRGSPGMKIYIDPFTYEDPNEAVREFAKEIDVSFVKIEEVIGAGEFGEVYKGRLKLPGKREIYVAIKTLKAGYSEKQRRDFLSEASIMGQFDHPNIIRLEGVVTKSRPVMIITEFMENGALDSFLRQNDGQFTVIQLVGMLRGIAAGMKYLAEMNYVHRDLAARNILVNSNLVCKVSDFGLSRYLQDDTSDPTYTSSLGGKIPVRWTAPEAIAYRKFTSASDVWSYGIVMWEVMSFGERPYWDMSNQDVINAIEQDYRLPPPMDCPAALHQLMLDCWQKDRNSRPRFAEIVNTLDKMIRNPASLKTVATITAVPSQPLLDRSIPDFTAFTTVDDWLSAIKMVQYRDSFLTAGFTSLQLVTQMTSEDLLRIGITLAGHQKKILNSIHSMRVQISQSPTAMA

MAP2K4 = MAP2K4 (Homo sapiens, UniProt P45985)
PRKX = PRKX (Homo sapiens, UniProt P51817)
NEK6 = NEK6 (Homo sapiens, UniProt Q9HC98)
NEK6, sequence (Q9HC98 whole entry): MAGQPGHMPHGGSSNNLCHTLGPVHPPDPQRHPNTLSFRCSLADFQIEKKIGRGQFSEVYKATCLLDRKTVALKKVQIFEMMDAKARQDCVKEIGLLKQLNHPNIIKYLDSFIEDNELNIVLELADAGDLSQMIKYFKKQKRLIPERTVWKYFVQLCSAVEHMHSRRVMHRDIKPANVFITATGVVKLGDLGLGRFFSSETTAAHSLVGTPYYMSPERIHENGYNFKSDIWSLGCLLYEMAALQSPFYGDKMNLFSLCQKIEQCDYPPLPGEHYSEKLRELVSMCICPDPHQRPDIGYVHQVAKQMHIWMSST

RPS6KA2 = RPS6KA2 (Homo sapiens, UniProt Q15349)
MASTL = MASTL (Homo sapiens, UniProt Q96GX5)
TEC = TEC (Homo sapiens, UniProt P42680)
MAPKAPK3 = MAPKAPK3 (Homo sapiens, UniProt Q16644)
MAPKAPK3, sequence (Q16644 whole entry): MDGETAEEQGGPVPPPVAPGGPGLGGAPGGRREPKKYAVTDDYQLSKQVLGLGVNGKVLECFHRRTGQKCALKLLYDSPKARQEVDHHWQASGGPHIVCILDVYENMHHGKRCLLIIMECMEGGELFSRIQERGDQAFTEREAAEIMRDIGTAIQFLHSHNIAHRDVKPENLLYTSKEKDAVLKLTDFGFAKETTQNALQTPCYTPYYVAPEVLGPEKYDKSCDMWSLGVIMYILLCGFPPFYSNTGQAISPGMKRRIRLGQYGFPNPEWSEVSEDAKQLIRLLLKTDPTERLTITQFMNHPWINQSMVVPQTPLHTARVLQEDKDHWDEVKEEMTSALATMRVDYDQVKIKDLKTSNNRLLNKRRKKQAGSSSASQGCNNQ

MARK4 = MARK4 (Homo sapiens, UniProt Q96L34)
PTK2 = PTK2 (Homo sapiens, UniProt Q05397)
PKN2 = PKN2 (Homo sapiens, UniProt Q16513)
PKN2, sequence (Q16513 whole entry): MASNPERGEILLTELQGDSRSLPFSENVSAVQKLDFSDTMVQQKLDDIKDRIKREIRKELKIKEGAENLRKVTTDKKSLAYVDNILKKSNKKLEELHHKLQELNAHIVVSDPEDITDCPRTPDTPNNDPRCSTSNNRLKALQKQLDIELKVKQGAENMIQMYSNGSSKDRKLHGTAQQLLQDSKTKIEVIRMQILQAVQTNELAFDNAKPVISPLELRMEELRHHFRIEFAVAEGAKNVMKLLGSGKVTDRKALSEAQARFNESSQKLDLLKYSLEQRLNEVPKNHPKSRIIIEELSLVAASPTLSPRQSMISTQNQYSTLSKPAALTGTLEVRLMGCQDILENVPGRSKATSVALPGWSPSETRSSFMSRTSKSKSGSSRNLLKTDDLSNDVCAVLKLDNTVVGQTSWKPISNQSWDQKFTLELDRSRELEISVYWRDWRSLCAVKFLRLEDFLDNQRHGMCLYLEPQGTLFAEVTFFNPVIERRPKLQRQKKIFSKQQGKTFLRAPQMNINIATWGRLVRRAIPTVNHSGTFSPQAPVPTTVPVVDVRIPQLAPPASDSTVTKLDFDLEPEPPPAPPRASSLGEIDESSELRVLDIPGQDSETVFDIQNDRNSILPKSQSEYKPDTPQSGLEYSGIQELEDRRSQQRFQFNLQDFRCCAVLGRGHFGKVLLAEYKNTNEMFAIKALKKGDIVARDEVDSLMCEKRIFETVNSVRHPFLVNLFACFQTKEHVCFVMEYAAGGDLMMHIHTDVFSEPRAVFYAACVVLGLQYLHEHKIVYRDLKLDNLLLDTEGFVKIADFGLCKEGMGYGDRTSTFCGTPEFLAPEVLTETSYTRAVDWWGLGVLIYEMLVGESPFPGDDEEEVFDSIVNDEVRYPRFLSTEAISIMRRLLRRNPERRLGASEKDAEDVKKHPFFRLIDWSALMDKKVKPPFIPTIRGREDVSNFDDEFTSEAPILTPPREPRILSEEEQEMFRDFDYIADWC

PDIK1L = PDIK1L (Homo sapiens, UniProt Q8N165)
PDIK1L, sequence (Q8N165 whole entry): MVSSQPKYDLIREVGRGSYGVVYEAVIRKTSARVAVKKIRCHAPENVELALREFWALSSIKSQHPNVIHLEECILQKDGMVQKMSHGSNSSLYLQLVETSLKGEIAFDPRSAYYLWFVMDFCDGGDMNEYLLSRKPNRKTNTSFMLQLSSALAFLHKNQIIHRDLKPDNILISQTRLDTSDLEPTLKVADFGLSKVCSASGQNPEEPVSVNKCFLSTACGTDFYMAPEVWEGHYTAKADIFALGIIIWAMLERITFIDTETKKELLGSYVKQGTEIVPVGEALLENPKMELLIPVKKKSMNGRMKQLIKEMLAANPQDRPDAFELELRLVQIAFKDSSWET

CDK5 = CDK5 (Homo sapiens, UniProt Q00535)
CDK5, sequence (Q00535 whole entry): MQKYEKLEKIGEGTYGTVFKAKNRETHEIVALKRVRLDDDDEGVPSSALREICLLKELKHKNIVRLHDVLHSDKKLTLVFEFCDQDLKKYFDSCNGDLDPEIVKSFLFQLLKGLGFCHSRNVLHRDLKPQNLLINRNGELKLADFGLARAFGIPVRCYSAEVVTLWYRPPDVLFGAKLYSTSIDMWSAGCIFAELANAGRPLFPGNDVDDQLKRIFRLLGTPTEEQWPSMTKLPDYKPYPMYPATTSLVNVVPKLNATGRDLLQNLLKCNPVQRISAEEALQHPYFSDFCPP

EPHB6 = EPHB6 (Homo sapiens, UniProt O15197)
MAP3K7 = MAP3K7 (Homo sapiens, UniProt O43318)

CSNK1A1, sequence (P48729 whole entry): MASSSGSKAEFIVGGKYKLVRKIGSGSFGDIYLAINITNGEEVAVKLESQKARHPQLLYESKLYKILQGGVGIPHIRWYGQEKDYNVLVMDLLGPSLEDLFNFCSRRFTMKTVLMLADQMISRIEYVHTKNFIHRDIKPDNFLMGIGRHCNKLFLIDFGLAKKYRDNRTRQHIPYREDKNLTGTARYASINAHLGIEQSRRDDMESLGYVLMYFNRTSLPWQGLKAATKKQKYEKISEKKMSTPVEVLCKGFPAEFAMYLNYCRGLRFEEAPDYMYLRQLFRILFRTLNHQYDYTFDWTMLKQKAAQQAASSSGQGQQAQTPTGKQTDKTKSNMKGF
EPHB3, sequence (P54753 whole entry): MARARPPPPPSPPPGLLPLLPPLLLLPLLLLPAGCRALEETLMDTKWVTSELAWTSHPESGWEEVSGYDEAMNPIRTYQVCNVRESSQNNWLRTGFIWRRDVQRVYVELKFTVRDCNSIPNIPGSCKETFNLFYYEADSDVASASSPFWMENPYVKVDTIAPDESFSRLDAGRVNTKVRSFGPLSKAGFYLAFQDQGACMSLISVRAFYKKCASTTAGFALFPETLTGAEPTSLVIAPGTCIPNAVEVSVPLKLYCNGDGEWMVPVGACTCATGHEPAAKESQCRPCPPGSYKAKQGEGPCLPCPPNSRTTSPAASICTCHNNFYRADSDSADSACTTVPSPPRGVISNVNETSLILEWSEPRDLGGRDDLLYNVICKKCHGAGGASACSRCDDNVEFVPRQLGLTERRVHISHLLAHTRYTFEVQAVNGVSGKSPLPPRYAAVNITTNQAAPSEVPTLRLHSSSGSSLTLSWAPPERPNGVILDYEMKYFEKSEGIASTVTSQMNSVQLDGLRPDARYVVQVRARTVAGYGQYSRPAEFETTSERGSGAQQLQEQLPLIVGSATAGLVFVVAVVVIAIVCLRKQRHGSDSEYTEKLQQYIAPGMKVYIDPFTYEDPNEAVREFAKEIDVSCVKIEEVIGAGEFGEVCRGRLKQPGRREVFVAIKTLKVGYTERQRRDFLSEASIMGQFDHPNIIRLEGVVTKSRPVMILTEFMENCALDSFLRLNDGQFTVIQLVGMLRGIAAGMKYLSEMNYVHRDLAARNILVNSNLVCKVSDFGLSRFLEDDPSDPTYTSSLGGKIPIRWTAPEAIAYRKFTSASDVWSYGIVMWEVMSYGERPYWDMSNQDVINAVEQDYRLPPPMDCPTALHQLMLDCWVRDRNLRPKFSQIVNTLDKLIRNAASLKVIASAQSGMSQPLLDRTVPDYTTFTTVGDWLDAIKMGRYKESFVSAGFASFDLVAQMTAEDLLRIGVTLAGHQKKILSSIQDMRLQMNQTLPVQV
STK16, sequence (O75716 whole entry): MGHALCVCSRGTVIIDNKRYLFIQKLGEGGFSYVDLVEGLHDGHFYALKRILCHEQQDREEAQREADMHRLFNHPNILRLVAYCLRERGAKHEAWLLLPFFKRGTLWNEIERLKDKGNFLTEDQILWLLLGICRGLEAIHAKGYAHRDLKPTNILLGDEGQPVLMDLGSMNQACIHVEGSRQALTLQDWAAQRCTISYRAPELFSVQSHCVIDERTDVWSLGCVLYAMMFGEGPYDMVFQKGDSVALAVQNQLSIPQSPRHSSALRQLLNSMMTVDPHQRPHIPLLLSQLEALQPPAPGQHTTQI

`COc1nc(N[C@H]2CC[C@H](NS(=O)(=O)CC(C)C)CC2)nc2[nH]nc(N3CCOC[C@H]3C)c12` [compound 39, N-(trans-4-((4-Methoxy-3-((R)-3-methylmorpholino)-1H-pyrazolo[3,4-d]pyrimidin-6-yl)amino)cyclohexyl)-2-methylpropane-1-sulfonamide] was tested, and the IC50 (CSNK1A1) was at least 20 µM, the IC50 (EPHB3) was at least 20 µM and the IC50 (MAP4K2) was at least 20 µM. It also gave an IC50 (STK16) of at least 20 µM, an IC50 (CDC42BPG) of at least 20 µM and an IC50 (RIPK4) of at least 20 µM. For the same molecule, the IC50 (EPHB1) was at least 20 µM, the IC50 (MAP2K4) was at least 20 µM and the IC50 (PRKX) was at least 20 µM. The IC50 (NEK6) was at least 20 µM, the IC50 (RPS6KA2) was at least 20 µM and the IC50 (MASTL) was at least 20 µM. For the same molecule, the IC50 (TEC) was at least 20 µM, the IC50 (MAPKAPK3) was at least 20 µM and the IC50 (MARK4) was at least 20 µM. For the same molecule, the IC50 (PTK2) was at least 20 µM, the IC50 (PKN2) was at least 20 µM and the IC50 (PDIK1L) was at least 20 µM. It also gave an IC50 (CDK5) of 12 µM, an IC50 (EPHB6) of 3.3 µM and an IC50 (MAP3K7) of at least 20 µM.

— paper PMC6407917, “Identification of GSK3186899/DDD853651 as a Preclinical Development Candidate for the Treatment of Visceral Leishmaniasis” (Journal of Medicinal Chemistry, 2018)
